Test results taken from a compilation of properties of binary mixtures (doi:10.1016/j.jct.2016.12.008).

Assay: xn = mol fraction of the nth substance listed
Details: 100 kPa

CC[n+]1ccn(C)c1.N#C[S-] + O
viscosity [mPa·s]
Details | 288.15 K | 293.15 K | 298.15 K | 303.15 K | 308.15 K | 313.15 K | 318.15 K
x2 = 0 | 34.24 | 27.9 | 22.68 | 19.09 | – | 14.18 | –
x2 = 0.1006 | 27.45 | – | 18.74 | 16.03 | 13.87 | – | 10.71
x2 = 0.1948 | 21.99 | 18.63 | 15.93 | – | – | 10.58 | –
x2 = 0.3026 | 18.6 | 15.74 | 13.44 | 11.61 | 10.14 | 8.93 | 7.94
x2 = 0.4011 | 15.07 | 12.81 | 10.99 | – | 8.39 | 7.43 | 6.62
x2 = 0.4979 | 12.4 | 10.43 | 8.94 | 7.77 | 6.83 | 6.07 | 5.43
x2 = 0.6043 | 9.2 | 7.9 | 6.85 | 6.01 | – | 4.74 | 4.26
x2 = 0.6887 | 7.15 | 6.17 | 5.38 | – | – | 3.74 | 3.35
x2 = 0.7981 | 4.7 | – | – | – | – | – | –
x2 = 0.9105 | 2.53 | – | 2.02 | 1.79 | 1.6 | – | 1.31
x2 = 0.9443 | – | 1.76 | 1.57 | 1.39 | 1.25 | 1.13 | 1.03
x2 = 0.9506 | 1.86 | 1.67 | 1.49 | 1.32 | 1.19 | – | 0.98

O + CC[n+]1ccn(C)c1.N#C[S-]
x1 = 1
Details | viscosity [mPa·s]
288.15 K | 1.13
298.15 K | 0.89
308.15 K | 0.72
313.15 K | 0.65
318.15 K | 0.6
